Experimental data published in patent US20220251074A1, “HERBICIDAL AMIDES” (BASF SE, priority 2019, published 2022).

Legend:
[1] = tested on: AMARE; assay: greenhouse pre-emergence herbicidal test; type: in vivo, Amaranthus retroflexus; settings: pre-emergence method, application rate 500 g/ha, scale from 0 to 100
Source text: (§1) The culture containers used were plastic flowerpots containing loamy sand with approximately 3.0% of humus as the substrate. The seeds of the test plants were sown separately for each species.
(§2) For the pre-emergence treatment, the active ingredients, which had been suspended or emulsified in water, were applied directly after sowing by means of finely distributing nozzles. The containers were irrigated gently to promote germination and growth and subsequently covered with transparent plastic hoods until the plants had rooted. This cover caused uniform germination of the test plants, unless this had been impaired by the active ingredients.
(§3) Depending on the species, the plants were kept at 10-25° C. or 20-35° C., respectively. The test period extended over 2 to 4 weeks. During this time, the plants were tended, and their response to the individual treatments was evaluated.
(§4) Evaluation was carried out using a scale from 0 to 100. 100 means no emergence of the plants, or complete destruction of at least the aerial moieties, and 0 means no damage, or normal course of growth. A good herbicidal activity is given at values of at least 80 and a very good herbicidal activity is given at values of at least 90.
(§5) The plants used in the greenhouse experiments were of the following species: […]

[2] = tested on: ABUTH; assay: greenhouse post-emergence herbicidal test; type: in vivo, Abutilon theophrasti; settings: post-emergence method, application rate 500 g/ha, scale from 0 to 100
Source text: as §1
(§6) For the post-emergence treatment, the test plants were first grown to a height of 3 to 15 cm, depending on the plant habit, and only then treated with the active ingredients which had been suspended or emulsified in water. For this purpose, the test plants were either sown directly and grown in the same containers, or they were first grown separately as seedlings and transplanted into the test containers a few days prior to treatment.
as §3, §4, §5

[3] = tested on: SETVI; assay: greenhouse post-emergence herbicidal test; type: in vivo, Setaria viridis; settings: application rate 500 g/ha, scale from 0 to 100; for herbicidal activity against SETVI: post-emergence method; for damages, unwanted plants SETVI: post-emergence application, greenhouse
Source text: as §1, §6, §3, §4, §5

[4] = tested on: AVEFA; assay: greenhouse post-emergence herbicidal test; type: in vivo, Avena fatua; settings: application rate 500 g/ha, scale from 0 to 100; for damages, unwanted plants AVEFA: post-emergence application, greenhouse
Source text: as §1, §6, §3, §4, §5

[5] = tested on: ECHCG; assay: greenhouse post-emergence herbicidal test; type: in vivo, Echinocloa crus-galli; settings: post-emergence method, application rate 500 g/ha, scale from 0 to 100
Source text: as §1, §6, §3, §4, §5

[6] = tested on: AMARE; assay: greenhouse post-emergence herbicidal test; type: in vivo, Amaranthus retroflexus; settings: post-emergence method, application rate 500 g/ha, scale from 0 to 100
Source text: as §1, §6, §3, §4, §5

[7] = tested on: SEBEX; assay: greenhouse post-emergence herbicidal test; type: in vivo, Sesbania exaltata; settings: post-emergence application, application rate 8 g/ha, scale from 0 to 100
Source text: as §1, §6, §3, §4, §5

[8] = tested on: CHEAL; assay: greenhouse post-emergence herbicidal test; type: in vivo, Chenopodium album; settings: post-emergence application, application rate 8 g/ha, scale from 0 to 100
Source text: as §1, §6, §3, §4, §5

[9] = tested on: RAPRA; assay: greenhouse post-emergence herbicidal test; type: in vivo, Raphanus raphanistrum; settings: post-emergence application, application rate 8 g/ha, scale from 0 to 100
Source text: as §1, §6, §3, §4, §5

[10] = tested on: ALOMY; assay: greenhouse post-emergence herbicidal test; type: in vivo, Alopercurus myosuroides; settings: post-emergence application, application rate 500 g/ha, scale from 0 to 100
Source text: as §1, §6, §3, §4, §5

[11] = tested on: SETFA; assay: greenhouse pre-emergence herbicidal test; type: in vivo, Setaria faberi; settings: pre-emergence method, application rate 500 g/ha, scale from 0 to 100
Source text: as §1, §2, §3, §4, §5

C#CCNC(=O)C=C(C)CC1OCC(CC2OC2C(C)C(C)O)C2OC(OCC)OC12 (stereo not shown) [compound 33]
herbicidal activity against AMARE [1]: good herbicidal activity (A good herbicidal activity is given at values of at least 80)

CC(=O)[C@H](C)[C@@H]1O[C@H]1C[C@H]1CO[C@@H](C/C(C)=C/C(=O)NCC(F)(F)F)[C@H](O)[C@@H]1O [compound 43]
herbicidal activity against ABUTH [2]: very good herbicidal activity (a very good herbicidal activity is given at values of at least 90) | herbicidal activity against SETVI [3]: very good herbicidal activity (a very good herbicidal activity is given at values of at least 90) | herbicidal activity against AVEFA ([4]; post-emergence method): very good herbicidal activity (a very good herbicidal activity is given at values of at least 90)

C/C(=C\C(=O)N1CCSC1=O)C[C@@H]1OC[C@H](C[C@@H]2O[C@H]2[C@@H](C)[C@H](C)O)[C@@H](O)[C@H]1O [compound 37]
herbicidal activity against ECHCG [5]: good herbicidal activity (A good herbicidal activity is given at values of at least 80) | herbicidal activity against ABUTH [2]: very good herbicidal activity (a very good herbicidal activity is given at values of at least 90) | herbicidal activity against SETVI [3]: very good herbicidal activity (a very good herbicidal activity is given at values of at least 90) | herbicidal activity against AMARE [6]: good herbicidal activity (A good herbicidal activity is given at values of at least 80)

C#CCNC(=O)/C=C(\C)C[C@@H]1OC[C@H](C[C@@H]2O[C@H]2[C@@H](C)[C@H](C)O)[C@@H](O)[C@H]1O [compound 26, (E)-4-[(2S,3R,4R,5S)-3,4-dihydroxy-5-[[(2S,3S)-3-[(1S,2S)-2-hydroxy-1-methyl-propyl]oxiran-2-yl]methyl]tetrahydropyran-2-yl]-3-methyl-N-prop-2-ynyl-but-2-enamide]
damages, unwanted plants SEBEX [7]: 100 | damages, unwanted plants CHEAL [8]: 100 | damages, unwanted plants SETVI [3]: 100 | damages, unwanted plants RAPRA [9]: 100 | damages, unwanted plants ALOMY [10]: 95 | damages, unwanted plants AVEFA [4]: 98

CCOC1OC2C(CC3OC3C(C)C(C)O)COC(CC(C)=CC(=O)NCC(F)(F)F)C2O1 (mixture of isomers) [compound 20]
herbicidal activity against ECHCG [5]: very good herbicidal activity (a very good herbicidal activity is given at values of at least 90) | herbicidal activity against ABUTH [2]: very good herbicidal activity (a very good herbicidal activity is given at values of at least 90) | herbicidal activity against AMARE [6]: very good herbicidal activity (a very good herbicidal activity is given at values of at least 90)

CC(=CC(=O)NCC(F)(F)C(F)(F)C(F)(F)F)CC1OCC(CC2OC2C(C)C(C)O)C2OC(C)(C)OC12 (stereo not shown) [compound 19]
herbicidal activity against AMARE [6]: very good herbicidal activity (a very good herbicidal activity is given at values of at least 90)

CC(=CC(=O)N1CCSC1=O)CC1OCC(CC2OC2C(C)C(C)O)C2OC(C)(C)OC12 (stereo not shown) [compound 39]
herbicidal activity against ABUTH [2]: very good herbicidal activity (a very good herbicidal activity is given at values of at least 90) | herbicidal activity against SETVI [3]: very good herbicidal activity (a very good herbicidal activity is given at values of at least 90)

C/C(=C\C(=O)NCC(F)(F)C(F)(F)C(F)(F)F)C[C@@H]1OC[C@H](C[C@@H]2O[C@H]2[C@@H](C)[C@H](C)O)[C@@H](O)[C@H]1O [compound 9]
herbicidal activity against ECHCG [5]: good herbicidal activity (A good herbicidal activity is given at values of at least 80) | herbicidal activity against SETVI [3]: very good herbicidal activity (a very good herbicidal activity is given at values of at least 90) | herbicidal activity against AMARE [6]: very good herbicidal activity (a very good herbicidal activity is given at values of at least 90)

C/C(=C\C(=O)NCC#CC(C)(C)C)C[C@@H]1OC[C@H](C[C@@H]2O[C@H]2[C@@H](C)[C@H](C)O)[C@@H](O)[C@H]1O [compound 29]
herbicidal activity against SETFA [11]: good herbicidal activity (A good herbicidal activity is given at values of at least 80)

C/C(=C\C(=O)NCCO)C[C@@H]1OC[C@H](C[C@@H]2O[C@H]2[C@@H](C)[C@H](C)O)[C@@H](O)[C@H]1O [cmpd 77 (WO 93/19599), reference compound]
damages, unwanted plants SEBEX [7]: 65 | damages, unwanted plants CHEAL [8]: 75 | damages, unwanted plants SETVI [3]: 85 | damages, unwanted plants RAPRA [9]: 85 | damages, unwanted plants ALOMY [10]: 70 | damages, unwanted plants AVEFA [4]: 50

C/C(=C\C(=O)NCCF)C[C@@H]1OC[C@H](C[C@@H]2O[C@H]2[C@@H](C)[C@H](C)O)[C@@H](O)[C@H]1O [compound 1]
damages, unwanted plants CHEAL [8]: 100 | damages, unwanted plants SETVI [3]: 100 | damages, unwanted plants RAPRA [9]: 100 | damages, unwanted plants ALOMY [10]: 100
